Reference: the supplement of paper PMC11451515

Experiments:
Assay in all cases: AUC of viability dose-response curve (% viability x log10 dose units); higher = less sensitive
Settings in all cases: 48 h
SEM cells = system: SEM cells
Method in brief: (§1)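 Library compounds in DMSO were applied for 48 h at 37°C at 11 threefold doses (47 μM to 0.79 nM) to medium-adapted leukemia cells in 1536-well plates holding 500 or 1000 cells/well. Luminescence from CellTiter-Glo One was normalised plate by plate against DMSO and cell-free wells. Area under the curve came from trapezoidal integration of a log-logistic fit, after scaling curves that rose above full viability and discarding those that failed quality control. The fit had four parameters and used log10 doses.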

NOMO1 = system: NOMO1
Method in brief: as §1

P12-Ichikawa = system: P12-Ichikawa
Method in brief: as §1

[1] = RPMI 5 mM glucose + 10% dialyzed FBS

SMILES	AUC of viability dose-response curve (SEM cells; HPLM + 10% dialyzed FBS)	AUC of viability dose-response curve (SEM cells; RPMI 5 mM glucose + 10% FBS)	AUC of viability dose-response curve (SEM cells; [1])	AUC of viability dose-response curve (NOMO1; HPLM + 10% dialyzed FBS)	AUC of viability dose-response curve (NOMO1; RPMI 5 mM glucose + 10% FBS)	AUC of viability dose-response curve (NOMO1; [1])	AUC of viability dose-response curve (P12-Ichikawa; HPLM + 10% dialyzed FBS)	AUC of viability dose-response curve (P12-Ichikawa; RPMI 5 mM glucose + 10% FBS)	AUC of viability dose-response curve (P12-Ichikawa; [1])
CC(C)(O)CC[C@@H](O)[C@](C)(O)[C@H]1CC[C@@]2(O)C/3=C/C(=O)[C@@H]4C[C@@H](O)[C@@H](O)C[C@]4(C)[C@H]3CC[C@]12C	434	449	412	410	421	429	453	444	429
CCC1(c2ccccc2)C(=O)NCNC1=O	441	445	452	442	448	471	471	453	466
CNC(=O)c1ccc(N2C(=S)N(c3cnc(C#N)c(C(F)(F)F)c3)C(=O)C23CCC3)cc1F	447	452	457	419	426	439	470	463	467
NNCCc1ccccc1	444	466	468	433	450	467	465	464	470
S=C(NCc1ccc2c(c1)OCO2)N1CCN(c2ncnc3c2oc2ccccc23)CC1	–	–	–	416	438	445	406	387	389
C[C@](O)(CS(=O)(=O)c1ccc(F)cc1)C(=O)Nc1ccc(C#N)c(C(F)(F)F)c1	461	433	444	443	460	470	472	463	470
COc1cc(OC2CCN(C)CC2)ccc1Nc1ncc2c(n1)n(C1CCCC1)c(=O)n2C	326	346	324	427	373	393	408	380	363
CC[C@]12CC[C@H]3[C@@H](CCC/4=C/C(=O)CC[C@H]34)[C@@H]1\C=C/[C@@]2(O)C#C	446	465	464	461	451	450	473	473	470
OC(c1cc(C(F)(F)F)nc2c(C(F)(F)F)cccc12)C1CCCCN1 (stereo not given)	455	453	455	447	453	452	468	458	473
Cc1coc2c1C(=O)C(=O)c1c-2ccc2c(C)cccc12	–	–	–	443	451	460	454	476	446
CC(C)(C#N)c1cc(Cn2cncn2)cc(C(C)(C)C#N)c1	–	–	–	–	–	–	466	456	442
CCN(CC)CCCCNc1ncc2cc(-c3cc(OC)cc(OC)c3)c(NC(=O)NC(C)(C)C)nc2n1	400	393	391	388	459	444	449	406	404
O=C(Nc1cccc(C(F)(F)F)c1)Nc1cc([S+](=O)([O-])NC2CC2)ccc1-c1ccsc1	466	399	454	–	–	–	466	465	460
COc1ccc([C@@H]2CC(=O)c3c(O)cc(O[C@@H]4O[C@H](CO[C@@H]5O[C@@H](C)[C@H](O)[C@@H](O)[C@H]5O)[C@@H](O)[C@H](O)[C@H]4O)cc3O2)cc1O	465	469	469	477	457	468	467	468	473
O=C1NC(=O)/C(=C/c2ccc3nccc(-c4ccncc4)c3c2)S1	289	290	290	293	351	296	341	308	317
Clc1ccc(-c2nc3sccn3c2/C=N/OCc2ccc(Cl)c(Cl)c2)cc1	453	430	455	445	451	461	448	463	454
CC[C@H](NC1=C2N=C[NH]C2=NC=N1)C/3=N/C4=C(C(=CC=C4)F)C(=O)N3C5=CC=CC=C5	411	430	442	433	450	432	436	395	401
CCC[S+]([O-])c1ccc2[nH]c(NC(=O)OC)nc2c1 (stereo not given)	409	399	411	429	420	384	409	393	405
C[C@@]12C(=O)OC(=O)[C@@]1(C)C1CCC2O1	400	392	377	391	371	392	407	405	407
c1ccc(CCCN2CCN(CCOC(c3ccccc3)c3ccccc3)CC2)cc1	–	–	–	434	409	405	431	432	406
C[C@]12CC[C@@H]3c4ccc(O)cc4CC[C@H]3[C@@H]1[C@@H](O)[C@@H](O)[C@@H]2O	465	448	461	461	471	468	468	457	450
COc1ccc([S+](=O)([O-])N(C(C)=O)c2ccccc2/C=C/c2cc[n+]([O-])cc2)cc1	352	342	351	351	352	356	353	345	370
